Measured values: patent US20220226321A1, “INHIBITOR OF MNK FOR THE TREATMENT OF NEUROPATHIC PAIN” (Board of Regents, The University of Texas System, priority 2019, published 2022)

System: Nav1.8-positive nociceptors
Type: in vivo, mouse
Settings: Nav1.8-TRAP after paclitaxel

SMILES: CC(=O)O[C@H]1C(=O)[C@@]2(C)[C@H]([C@H](OC(=O)c3ccccc3)[C@]3(O)C[C@H](OC(=O)[C@H](O)[C@@H](NC(=O)c4ccccc4)c4ccccc4)C(C)=C1C3(C)C)[C@]1(OC(C)=O)CO[C@@H]1C[C@@H]2O [paclitaxel]
- Log2FC 0st4: 1.718
- Log2FC 2010107E04Rik: 2.12
- Log2FC 2310039H08Rik: 5.143
- Log2FC 2700094K13R1k: 3.302
- Log2FC 4833439L19R1k: 2.132
- Log2FC Aars2: 2.418
- Log2FC Acadvl: 1.927
- Log2FC Acap3: 3.498
- Log2FC Acp1: 1.942
- Log2FC Adamts8: 3.561
- Log2FC Adcy6: 2.711
- Log2FC Alkbh3: 6.476
- Log2FC Amacr: 2.955
- Log2FC Amd1: 3.371
- Log2FC Amer2: 2.706
- Log2FC Anapc13: 3.575
- Log2FC AngptI2: 2.189
- Log2FC Ankrd13b: 2.385
- Log2FC Anxa5: 1.873
- Log2FC Ap2m1: 1.802
- Log2FC Apip: 3.746
- Log2FC Arl3: 1.891
- Log2FC Arl6: 2.816
- Log2FC Arpc1b: 2.309
- Log2FC Asna1: 2.939
- Log2FC Atg4c: 2.347
- Log2FC Atp5c1: 2.208
- Log2FC Atp5j2: 1.988
- Log2FC Avpi1: 2.241
- Log2FC Bcl3: 1.89
- Log2FC Bloc1s1: 1.944
- Log2FC Btbd2: 1.76
- Log2FC C77080: 2.169
- Log2FC Calca: 1.643
- Log2FC Camk1: 1.856
- Log2FC Caml: 1.865
- Log2FC Card19: 1.753
- Log2FC Casp6: 5.72
- Log2FC Ccm2: 1.643
- Log2FC Cct3: 1.638
- Log2FC Cd1d1: 3.345
- Log2FC Cdc42ep3: 3.249
- Log2FC Cdpf1: 1.815
- Log2FC Cenpf: 2.902
- Log2FC Cfap206: 3.055
- Log2FC Cfd: 2.201
- Log2FC Chchd10: 3.153
- Log2FC Chp1: 1.916
- Log2FC Cisd2: 2.375
- Log2FC Cln5: 3.447
- Log2FC Cnih4: 1.926
- Log2FC Cnrip1: 2.136
- Log2FC Cntfr: 2.495
- Log2FC Coq3: 4.105
- Log2FC Cox6b1: 1.818
- Log2FC Cox7a2: 2.17
- Log2FC Cox7b: 2.566
- Log2FC Cox18: 2.806
- Log2FC Crlf2: 3.214
- Log2FC DIg2: 2.734
- Log2FC Dad1: 2.457
- Log2FC Ddt: 1.823
- Log2FC Ddx59: 3.577
- Log2FC Dhrs1: 1.833
- Log2FC Dnajb1: 1.888
- Log2FC Dnajc5: 1.672
- Log2FC Dnal4: 3.156
- Log2FC Dolk: 3.023
- Log2FC Dpm3: 2.927
- Log2FC Dzank1: 2.226
- Log2FC Edfl: 2.362
- Log2FC Efccl: 3.201
- Log2FC Eif3l: 1.622
- Log2FC Eif4a3: 2.269
- Log2FC Elk4: 1.928
- Log2FC Emd: 2.135
- Log2FC Endov: 2.652
- Log2FC Esd: 1.658
- Log2FC Esyt1: 3.657
- Log2FC Fabp7: 2.365
- Log2FC Fads3: 2.619
- Log2FC Fam89a: 3.216
- Log2FC Fam132a: 3.453
- Log2FC Fam172a: 2.094
- Log2FC Fam189b: 1.8
- Log2FC Fbxo2: 2.965
- Log2FC Fkbp1b: 1.714
- Log2FC Fm43b: 4.132
- Log2FC Fsd1: 3.044
- Log2FC Fxyd2: 1.653
- Log2FC Gdf1: 2.419
- Log2FC Gla: 1.793
- Log2FC Gm20721: 2.093
- Log2FC Gmppa: 2.033
- Log2FC Gpr75: 3.81
- Log2FC Gstm1: 3.155
- Log2FC H2-T23: 3.904
- Log2FC H2afj: 2.76
- Log2FC H2afz: 1.717
- Log2FC Hagh: 3.067
- Log2FC Hhatl: 3.915
- Log2FC Hist3h2ba: 2.223
- Log2FC Hspa8: 1.666
- Log2FC Idh3b: 1.905
- Log2FC Ift122: 2.378
- Log2FC Igtp: 2.41
- Log2FC Kcnip2: 2.308
- Log2FC Kcnip4: 1.68
- Log2FC Krt28: 5.481
- Log2FC L3mbt12: 1.691
- Log2FC Lamtor5: 1.975
- Log2FC Lcmt1: 1.712
- Log2FC Lingo2: 2.247
- Log2FC Litaf: 2.888
- Log2FC Lrrc55: 5.433
- Log2FC Lxn: 2.119
- Log2FC Lyrm2: 2.832
- Log2FC M pl36: 2.805
- Log2FC Mok: 7.257
- Log2FC Mpp4: 3.465
- Log2FC Mpv17: 1.73
- Log2FC Mrpl18: 1.683
- Log2FC Mrpl34: 2.378
- Log2FC Mrpl42: 1.785
- Log2FC Mrps36: 2.585
- Log2FC Mtor: 1.973
